Measurements published in publication PMC10600247, “Impact of C- and N-terminal protection on the stability, metal chelation and antimicrobial properties of calcitermin” (Scientific Reports, 2023).
Residues, ends and D or L forms follow the SMILES beside them.

Key:
C. albicans (ATCC 10231) = assay: In vitro antifungal CFU assay; format: cell-based, Candida albicans; conditions: pH 5.4; for mean CFU number ± S.D.: per 0.1 mL
Experimental: (§1) All microbes were grown at 37 °C in Tryptic Soy Broth (TSB; Biolife, Milan, Italy) or Tryptic Soy Agar plates (TSA, Biolife, Milan, Italy). Peptides were tested at a final concentration C = 0.128, 0.064, 0.032 mg/mL, in the presence or absence of ZnCl2 or CuCl2, at a M:L molar ratio 0.9:1. Briefly, all the microbes were expanded in TSB at 37 °C under agitation for 12 h and then sub-cultured by 1:10 dilution in TSB under the same conditions until reaching OD600nm = 0.3–0.4, as measured by spectrophotometric reading using a GENESYS 10S UV–Vis spectrophotometer (Thermo Scientific, Milan, Italy), corresponding to 0.9–1.2 × 10^7 colony forming units (CFU) per mL, 1.5–2 × 10^8 CFU/mL and 2.4–3.2 × 10^8 CFU/mL, for C. albicans, S. aureus and E. coli respectively. The cultures were then centrifuged at 4500 rpm for 10 min in a SL 8 centrifuge (TX-150 Rotor) (Thermo Scientific, Milan, Italy), and the cellular pellets were washed with PBS pH 5.4. Pelletized cultures were then suspended in 10 mL of PBS pH 5.4, then the suspensions were diluted to a final concentration of 10^4 CFU/mL. Aliquots of 100 µl (corresponding to 10^3 CFU) were seeded in each well of a 96-wells plate. 3 µl of TSB at pH 5.4 were added to each well to obtain a final 1.5% TSB concentration in the culture medium. Peptides were serially diluted in PBS pH 5.4 to C = 0.257, 0.128, and 0.064 mg/mL. ZnCl2 and CuCl2 solutions were added where requested to obtain a M:L ratio 0.9:1. 100 µl of the prepared peptides ± ZnCl2/CuCl2 solutions were then added to each well, obtaining the final 0.128, 0.064 and 0.032 mg/mL peptide concentrations in a total 0.2 mL volume. PBS alone and PBS + ZnCl2/CuCl2 solutions were included as controls. The plates were incubated at 37 °C on a platform rocker with slow stirring for 3 and 24 h. At the end of the incubation times, 100 µl aliquots were taken from each sample and diluted in PBS pH 5.4 to be seeded on TSA plates. Specifically, aliquots were diluted 1:10 at 3 h, and 1:200, 1:100,000 and 1:10 at 24 h, for C. albicans, E. coli, and S. aureus respectively. After incubation for 24 h at 37 °C, grown CFUs were enumerated. Samples were assayed in triplicate in two independent experiments. Student’s t-test was used for the evaluation of significance in biological tests; a p value ≤ 0.05 was considered significant.

E. coli (ATCC 25922) = assay: In vitro anti-E. coli CFU assay; format: cell-based, Escherichia coli; conditions: pH 5.4; for mean CFU number ± S.D.: per 0.1 mL
Experimental: as §1

[1] = peptide 0.032 mg/mL + CuCl2 (0.9:1), 3 h
[2] = peptide 0.032 mg/mL + CuCl2 (0.9:1), 24 h
[3] = peptide 0.032 mg/mL + ZnCl2 (0.9:1), 3 h
[4] = peptide 0.032 mg/mL + ZnCl2 (0.9:1), 24 h
[5] = peptide 0.064 mg/mL + CuCl2 (0.9:1), 3 h
[6] = peptide 0.064 mg/mL + CuCl2 (0.9:1), 24 h
[7] = peptide 0.064 mg/mL + ZnCl2 (0.9:1), 3 h
[8] = peptide 0.064 mg/mL + ZnCl2 (0.9:1), 24 h
[9] = peptide 0.128 mg/mL + CuCl2 (0.9:1), 3 h
[10] = peptide 0.128 mg/mL + CuCl2 (0.9:1), 24 h
[11] = peptide 0.128 mg/mL + ZnCl2 (0.9:1), 3 h
[12] = peptide 0.128 mg/mL + ZnCl2 (0.9:1), 24 h
[13] = peptide alone 0.032 mg/mL, 24 h
[14] = peptide alone 0.064 mg/mL, 24 h
[15] = peptide alone 0.128 mg/mL, 24 h

## CC[C@H](C)[C@H](NC(=O)[C@H](C)NC(=O)[C@@H](N)C(C)C)C(=O)N[C@@H](C)C(=O)N[C@@H](CC(C)C)C(=O)N[C@@H](CCCCN)C(=O)N[C@@H](C)C(=O)N[C@@H](C)C(=O)N[C@@H](Cc1c[nH]cn1)C(=O)N[C@@H](Cc1ccc(O)cc1)C(=O)N[C@@H](Cc1c[nH]cn1)C(=O)N[C@H](C(=O)N[C@@H](Cc1c[nH]cn1)C(=O)N[C@@H](CCCCN)C(=O)N[C@@H](CCC(=O)O)C(N)=O)[C@@H](C)O [L3, VAIALKAAHYHTHKE-NH2] (H-VAIALKAAHYHTHKE-NH2)
C. albicans (ATCC 10231); [1]
  CFU decrease/increase with respect to untreated controls: +23%
  mean CFU number ± S.D.: 187 ± 20 CFU
C. albicans (ATCC 10231); [2]
  CFU decrease/increase with respect to untreated controls: -19%
  mean CFU number ± S.D.: 2,042 ± 137 CFU
C. albicans (ATCC 10231); [3]
  CFU decrease/increase with respect to untreated controls: +6%
  mean CFU number ± S.D.: 160 ± 25 CFU
C. albicans (ATCC 10231); [4]
  CFU decrease/increase with respect to untreated controls: +2%
  mean CFU number ± S.D.: 2,557 ± 251 CFU
C. albicans (ATCC 10231); [5]
  CFU decrease/increase with respect to untreated controls: +59%
  mean CFU number ± S.D.: 241 ± 23 CFU
C. albicans (ATCC 10231); [6]
  CFU decrease/increase with respect to untreated controls: -8%
  mean CFU number ± S.D.: 2,315 ± 546 CFU
C. albicans (ATCC 10231); [7]
  CFU decrease/increase with respect to untreated controls: -2%
  mean CFU number ± S.D.: 148 ± 22 CFU
C. albicans (ATCC 10231); [8]
  mean CFU number ± S.D.: 1,596 ± 145 CFU
C. albicans (ATCC 10231); [9]
  CFU decrease/increase with respect to untreated controls: +53%
  mean CFU number ± S.D.: 230 ± 3 CFU
C. albicans (ATCC 10231); [10]
  CFU decrease/increase with respect to untreated controls: -33%
  mean CFU number ± S.D.: 1,687 ± 111 CFU
C. albicans (ATCC 10231); [11]
  mean CFU number ± S.D.: 71 ± 17 CFU
C. albicans (ATCC 10231); [12]
  mean CFU number ± S.D.: 605 ± 97 CFU
C. albicans (ATCC 10231); peptide alone 0.032 mg/mL, 3 h
  CFU decrease/increase with respect to untreated controls: +25%
  mean CFU number ± S.D.: 189 ± 23 CFU
C. albicans (ATCC 10231); [13]
  CFU decrease/increase with respect to untreated controls: -10%
  mean CFU number ± S.D.: 2,263 ± 251 CFU
C. albicans (ATCC 10231); peptide alone 0.064 mg/mL, 3 h
  CFU decrease/increase with respect to untreated controls: +20%
  mean CFU number ± S.D.: 182 ± 27 CFU
C. albicans (ATCC 10231); [14]
  CFU decrease/increase with respect to untreated controls: -12%
  mean CFU number ± S.D.: 2,204 ± 170 CFU
C. albicans (ATCC 10231); peptide alone 0.128 mg/mL, 3 h
  CFU decrease/increase with respect to untreated controls: -5%
  mean CFU number ± S.D.: 144 ± 11 CFU
C. albicans (ATCC 10231); [15]
  CFU decrease/increase with respect to untreated controls: -14%
  mean CFU number ± S.D.: 2,164 ± 101 CFU
E. coli (ATCC 25922); [1]
  mean CFU number ± S.D.: 509 ± 100 CFU
E. coli (ATCC 25922); [2]
  CFU decrease/increase with respect to untreated controls: +7%
  mean CFU number ± S.D.: 184 ± 17 CFU
E. coli (ATCC 25922); [3]
  mean CFU number ± S.D.: 439 ± 91 CFU
E. coli (ATCC 25922); [4]
  CFU decrease/increase with respect to untreated controls: +17%
  mean CFU number ± S.D.: 202 ± 23 CFU
E. coli (ATCC 25922); [5]
  mean CFU number ± S.D.: 198 ± 117 CFU
E. coli (ATCC 25922); [6]
  CFU decrease/increase with respect to untreated controls: -20%
  mean CFU number ± S.D.: 138 ± 48 CFU
E. coli (ATCC 25922); [7]
  mean CFU number ± S.D.: 224 ± 4 CFU
E. coli (ATCC 25922); [8]
  CFU decrease/increase with respect to untreated controls: +8%
  mean CFU number ± S.D.: 186 ± 21 CFU
E. coli (ATCC 25922); [9]
  mean CFU number ± S.D.: 191 ± 7 CFU
E. coli (ATCC 25922); [10]
  mean CFU number ± S.D.: 102 ± 20 CFU
E. coli (ATCC 25922); [11]
  mean CFU number ± S.D.: 59 ± 9 CFU
E. coli (ATCC 25922); [12]
  CFU decrease/increase with respect to untreated controls: +9%
  mean CFU number ± S.D.: 187 ± 17 CFU
E. coli (ATCC 25922); peptide alone 0.032 mg/mL, 3 h
  CFU decrease/increase with respect to untreated controls: -23%
  mean CFU number ± S.D.: 810 ± 100 CFU
E. coli (ATCC 25922); [13]
  CFU decrease/increase with respect to untreated controls: +17%
  mean CFU number ± S.D.: 202 ± 18 CFU
E. coli (ATCC 25922); peptide alone 0.064 mg/mL, 3 h
  CFU decrease/increase with respect to untreated controls: -30%
  mean CFU number ± S.D.: 737 ± 147 CFU
E. coli (ATCC 25922); [14]
  CFU decrease/increase with respect to untreated controls: -3%
  mean CFU number ± S.D.: 166 ± 8 CFU
E. coli (ATCC 25922); peptide alone 0.128 mg/mL, 3 h
  CFU decrease/increase with respect to untreated controls: -15%
  mean CFU number ± S.D.: 893 ± 113 CFU
E. coli (ATCC 25922); [15]
  CFU decrease/increase with respect to untreated controls: +12%
  mean CFU number ± S.D.: 193 ± 9 CFU
